Test [1] deals with Receptor tyrosine-protein kinase erbB-2 (Homo sapiens, UniProt P04626). Description: Inhibition of heregulin-stimulated autophosphorylation of erbB2 in MDA-MB 453 cells. The class given is cell-based.
In test [2] the target is Epidermal growth factor receptor (Homo sapiens, UniProt P00533).
Description: Inhibition of phosphorylation of a polyglutamic acid/tyrosine random copolymer by EGFR enzyme (from human A431 carcinoma cell vesicles)
Test [3] deals with MCF7. Description: In vivo activity in MCF-7 tumor bearing mice, maximum dose (schedule 11-25 days). The test is classed as functional.
Test [4] relates to MCF7. Description: In vivo activity in MCF-7 tumor bearing mice, maximum weight loss days 11-25. The class given is functional.
Test [5] relates to A-431. In words: In vivo activity in A431 tumor bearing mice, relative time required for treated and control tumors to reach 750 mg (schedule 12-26 days). The test is classed as functional.
Test [6] deals with MCF7. In words: In vivo activity in MCF-7 tumor bearing mice, relative time required for treated and control tumors to reach 750 mg (schedule 11-25 days). The test is classed as functional.
Test [7] relates to A-431. In words: In vivo activity in A431 tumor bearing mice, maximum dose (schedule 10-24 days). The test is classed as functional.
The test system of test [8] is NCI-H125. In words: In vivo activity in H125 tumor bearing mice, relative time required for treated and control tumors to reach 750 mg (schedule 15-29 days). The test is classed as functional, Mus musculus.
The test system of test [9] is NCI-H125. In words: In vivo activity in H125 tumor bearing mice, ratio of treated and control tumor mass day 29. The class given is functional, Mus musculus.
The test system of test [10] is NCI-H125. Description: In vivo activity in H125 tumor bearing mice, maximum weight loss days 15-29. The class given is functional, Mus musculus.
Test [11] relates to MCF7. Description: In vivo activity in MCF-7 tumor bearing mice, ratio of treated and control tumor mass day 25. The test is classed as functional.
Test [12] relates to A-431. Description: In vivo activity in A431 tumor bearing mice, maximum weight loss days 12-26. The test is classed as functional.
Test [13] relates to A-431. In words: In vivo activity in A431 tumor bearing mice, ratio of treated and control tumor mass day 26. The test is classed as functional.
Test [14] relates to NCI-H125. In words: In vivo activity in H125 tumor bearing mice, maximum dose (schedule 15-29 days). The class given is functional, Mus musculus.
Test [15] relates to MCF7. In words: In vivo activity in MCF-7 tumor bearing mice, ratio of treated and control tumor mass day 31. The class given is functional.
In test [16] the test system is MCF7. Description: In vivo activity in MCF-7 tumor bearing mice, relative time required for treated and control tumors to reach 750 mg (schedule 17-31 days). The test is classed as functional.
For test [17], the system named is MCF7. In words: In vivo activity in MCF-7 tumor bearing mice, maximum dose (schedule 17-31 days). The class given is functional.
Test [18] relates to A-431. Description: In vivo activity in A431 tumor bearing mice, maximum dose (schedule 12-26 days). The class given is functional.

Receptor tyrosine-protein kinase erbB-2, sequence (P04626 whole entry): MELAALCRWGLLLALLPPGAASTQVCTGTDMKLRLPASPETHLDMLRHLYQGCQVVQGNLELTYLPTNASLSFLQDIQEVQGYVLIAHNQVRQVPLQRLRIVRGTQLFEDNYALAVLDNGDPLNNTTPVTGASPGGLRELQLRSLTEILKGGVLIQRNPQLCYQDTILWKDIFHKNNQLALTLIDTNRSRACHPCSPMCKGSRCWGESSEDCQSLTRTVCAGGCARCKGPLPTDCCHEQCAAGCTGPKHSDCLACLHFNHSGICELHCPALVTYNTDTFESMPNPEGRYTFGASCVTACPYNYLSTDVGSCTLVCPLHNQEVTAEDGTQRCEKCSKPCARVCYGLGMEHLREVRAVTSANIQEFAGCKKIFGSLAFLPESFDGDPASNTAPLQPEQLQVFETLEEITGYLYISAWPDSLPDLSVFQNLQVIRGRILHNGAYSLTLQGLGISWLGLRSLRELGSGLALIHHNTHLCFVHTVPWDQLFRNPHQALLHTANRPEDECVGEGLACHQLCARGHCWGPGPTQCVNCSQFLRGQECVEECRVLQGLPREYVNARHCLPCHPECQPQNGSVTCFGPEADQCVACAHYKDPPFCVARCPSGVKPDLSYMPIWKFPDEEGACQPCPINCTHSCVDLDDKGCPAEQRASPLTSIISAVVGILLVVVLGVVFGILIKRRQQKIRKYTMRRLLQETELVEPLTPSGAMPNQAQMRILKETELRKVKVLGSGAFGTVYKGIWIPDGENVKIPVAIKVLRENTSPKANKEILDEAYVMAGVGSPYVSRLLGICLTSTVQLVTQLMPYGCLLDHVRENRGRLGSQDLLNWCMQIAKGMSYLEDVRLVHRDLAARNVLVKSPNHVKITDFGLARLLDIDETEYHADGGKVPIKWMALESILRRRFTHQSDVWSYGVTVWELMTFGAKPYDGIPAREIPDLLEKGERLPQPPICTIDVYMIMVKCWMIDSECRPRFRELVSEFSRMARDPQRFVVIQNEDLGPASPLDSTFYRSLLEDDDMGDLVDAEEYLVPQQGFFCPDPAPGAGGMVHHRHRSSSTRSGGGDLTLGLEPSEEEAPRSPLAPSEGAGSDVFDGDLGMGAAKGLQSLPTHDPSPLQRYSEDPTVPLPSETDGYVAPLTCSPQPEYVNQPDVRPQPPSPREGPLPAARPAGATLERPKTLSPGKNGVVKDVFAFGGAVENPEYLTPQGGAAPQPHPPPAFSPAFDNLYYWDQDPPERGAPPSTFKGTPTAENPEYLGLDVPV
Epidermal growth factor receptor, sequence (P00533 whole entry): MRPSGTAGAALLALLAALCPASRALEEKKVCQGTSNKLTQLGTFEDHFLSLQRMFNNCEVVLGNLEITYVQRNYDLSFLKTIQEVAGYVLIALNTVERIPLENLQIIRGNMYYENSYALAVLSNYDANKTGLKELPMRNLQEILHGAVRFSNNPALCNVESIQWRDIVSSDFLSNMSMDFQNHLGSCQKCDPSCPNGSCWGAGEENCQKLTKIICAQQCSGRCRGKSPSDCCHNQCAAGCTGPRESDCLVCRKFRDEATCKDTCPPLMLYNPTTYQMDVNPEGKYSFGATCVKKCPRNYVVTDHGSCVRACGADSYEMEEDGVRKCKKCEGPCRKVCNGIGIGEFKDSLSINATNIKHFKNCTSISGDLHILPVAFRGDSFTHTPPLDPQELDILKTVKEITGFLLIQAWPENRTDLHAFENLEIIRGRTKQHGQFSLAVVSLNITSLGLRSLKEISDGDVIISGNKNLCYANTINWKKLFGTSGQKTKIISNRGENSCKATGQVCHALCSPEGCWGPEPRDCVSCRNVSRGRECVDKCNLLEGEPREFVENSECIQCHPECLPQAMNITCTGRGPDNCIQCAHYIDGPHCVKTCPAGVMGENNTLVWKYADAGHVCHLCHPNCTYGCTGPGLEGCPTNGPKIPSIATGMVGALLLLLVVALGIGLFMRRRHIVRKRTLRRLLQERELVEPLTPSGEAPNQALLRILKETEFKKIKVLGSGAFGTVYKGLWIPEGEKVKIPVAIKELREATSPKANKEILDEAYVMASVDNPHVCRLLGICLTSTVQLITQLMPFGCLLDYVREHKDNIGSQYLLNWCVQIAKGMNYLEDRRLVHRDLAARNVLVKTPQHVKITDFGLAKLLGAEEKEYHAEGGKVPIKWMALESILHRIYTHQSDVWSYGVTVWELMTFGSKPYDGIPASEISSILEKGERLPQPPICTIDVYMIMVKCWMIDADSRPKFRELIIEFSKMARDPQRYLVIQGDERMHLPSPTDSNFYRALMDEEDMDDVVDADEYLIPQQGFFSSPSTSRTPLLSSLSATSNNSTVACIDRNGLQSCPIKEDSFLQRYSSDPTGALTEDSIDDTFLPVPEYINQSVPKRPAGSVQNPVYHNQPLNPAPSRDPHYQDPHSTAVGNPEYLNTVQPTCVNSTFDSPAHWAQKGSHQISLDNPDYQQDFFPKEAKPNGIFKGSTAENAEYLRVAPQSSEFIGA

On to `CCN(CC)CCCNC(=O)/C=C/C(=O)Nc1cc2c(Nc3cccc(Br)c3)ncnc2cn1`, for which, in test [1], the midpoint of inhibition, the IC50, lay at 14 nM. In other words, the double-digit nanomolar range.
On the same count and under the same terms, the result for `O=C(/C=C/C(=O)Nc1cc2c(Nc3cccc(Br)c3)ncnc2cn1)NCCCn1ccnc1` reads 8.1 nM; that for `CN(C)CCCNC(=O)/C=C/C(=O)Nc1cc2c(Nc3cccc(Br)c3)ncnc2cn1`, 13 nM.
Regarding `O=S(=O)(CCO)c1cc2c(Nc3cccc(Br)c3)ncnc2cn1`, in test [2], the IC50 turned out to be 93.5 nM.
For `O=C(/C=C/C(=O)Nc1cc2c(Nc3cccc(Br)c3)ncnc2cn1)NCCCN1CCOCC1`, the IC50 in test [1] was determined as 5 nM.
On to `CN(C)CCCNC(=O)/C=C/C(=O)Nc1ccc2ncnc(Nc3cccc(Br)c3)c2c1`, for which, in [1], 207 nM corresponded to half-maximal inhibition (IC50).
Turning to `C=CC(=O)N(C)c1cc2c(Nc3cccc(Br)c3)ncnc2cn1`, the HDT in the test on MCF7 [3], in the test with A-431 [7] and with NCI-H125 [14] was 200 mg/kg each time. Moreover, the Weight change is reported as -0.3 g in the test with MCF7 [4], -0.4 g in the test with NCI-H125 [10] and -0.1 g in the test with A-431 [12]. Moreover, the T-C came out at 5.2 days in the test with A-431 [5], 1.5 days with MCF7 [6] and 7.3 days with NCI-H125 [8]. For the same molecule, the values for the T/C with NCI-H125 [9], in the test with MCF7 [11] and with A-431 [13] were 56%, 88% and 62%, respectively.
Molecule `O=C(/C=C/C(=O)Nc1cc2c(Nc3ccc(F)c(Cl)c3)ncnc2cn1)NCCCN1CCOCC1` displayed an IC50 in [1] of 24 nM. For the same molecule, the T/C in the test on MCF7 [15] is recorded as 124%; in the test with NCI-H125 [9], 23%; in the test on A-431 [13], 70%. In addition, the T-C is 6.8 days in the test on MCF7 [16], 5.2 days in the test on A-431 [5] and 7.9 days in the test on NCI-H125 [8]. For the same molecule, the HDT in the test on MCF7 [17], in the test on A-431 [18] and with NCI-H125 [14] was 200 mg/kg each time. For the same molecule, the results for the Weight change in the test on NCI-H125 [10] and with A-431 [12] were -0.3 g and -0.1 g, respectively.

What is called IC50 is the concentration that inhibits the measured activity by half. Low values mean greater potency, high ones weaker potency. In general, T/C refers to the ratio of treated to control.

These data come from ChEMBL document CHEMBL1134843, “Tyrosine kinase inhibitors. 18. 6-Substituted 4-anilinoquinazolines and 4-anilinopyrido[3,4-d]pyrimidines as soluble, irreversible inhibitors of the epidermal growth factor receptor” (J Med Chem, 2001).
